Results reported in ChEMBL document CHEMBL4308854, “Novel indole-thiazolidinone conjugates: Design, synthesis and whole-cell phenotypic evaluation as a novel class of antimicrobial agents” (Eur J Med Chem, 2018).
Converted amounts (≈) assume the structure as drawn.

Key:
Candida albicans [1] = assay: Antifungal activity against Candida albicans RCMB 05036 assessed as diameter of zone inhibition after 48 hrs by agar well diffusion assay; assay type: functional
Escherichia coli [2] = assay: Antibacterial activity against Escherichia coli RCMB 010052 assessed as diameter of zone inhibition after 24 hrs by agar well diffusion assay; assay type: functional
Escherichia coli [3] = assay: Antibacterial activity against Escherichia coli RCMB 010052 after 24 hrs by serial dilution method; assay type: functional; details: RCMB 010052, 24 h
[4] = Stability in mouse RAW264.7 cells measured after 48 hrs; assay type: ADME, cell-based; details: raw264.7, 48 h
Mycolicibacterium aurum = assay: Antitubercular activity against Mycobacterium aurum infected in mouse RAW264.7 cells measured after 48 hrs; assay type: functional
Staphylococcus aureus [5] = assay: Antibacterial activity against Staphylococcus aureus RCMB 010028 assessed as diameter of zone inhibition after 24 hrs by agar well diffusion assay; assay type: functional
Staphylococcus aureus [6] = assay: Potency index, ratio of ciprofloxacin MIC to compound MIC for Staphylococcus aureus RCMB 010028; assay type: functional
[7] = Cytotoxicity against mouse RAW264.7 cells; assay type: cell-based
Candida albicans [8] = assay: Antifungal activity against Candida albicans RCMB 05036 after 24 hrs by serial dilution method; assay type: functional; details: RCMB 05036, 24 h
Staphylococcus aureus [9] = assay: Antibacterial activity against Staphylococcus aureus RCMB 010028 after 24 hrs by serial dilution method; assay type: functional; details: RCMB 010028, 24 h
Escherichia coli [10] = assay: Potency index, ratio of ciprofloxacin MIC to compound MIC for Escherichia coli RCMB 010052; assay type: functional
[11] = Selectivity index, ratio of GI50 for mouse RAW264.7 cells to MIC for Mycobacterium aurum infected in mouse RAW264.7 cells; assay type: toxicity, cell-based; details: read-out: Selectivity Index
Pseudomonas aeruginosa [12] = assay: Antibacterial activity against Pseudomonas aeruginosa RCMB 010043 after 24 hrs by serial dilution method; assay type: functional; details: RCMB 010043, 24 h
Aspergillus fumigatus [13] = assay: Antifungal activity against Aspergillus fumigatus RCMB 02568 assessed as diameter of zone inhibition after 48 hrs by agar well diffusion assay; assay type: functional
[14] = test system: Mycobacterium tuberculosis; assay: Antitubercular activity against Mycobacterium tuberculosis RCMB 010126 clinical isolate after 4 days by microplate alamar blue assay; assay type: functional; details: for MIC: Mycobacterium tuberculosis, RCMB 010126, 96 h
Pseudomonas aeruginosa [15] = assay: Antibacterial activity against Pseudomonas aeruginosa RCMB 010043 assessed as diameter of zone inhibition after 24 hrs by agar well diffusion assay; assay type: functional
Aspergillus fumigatus [16] = assay: Antifungal activity against Aspergillus fumigatus RCMB 02568 after 24 hrs by serial dilution method; assay type: functional; details: RCMB 02568, 24 h
Pseudomonas aeruginosa [17] = assay: Potency index, ratio of ciprofloxacin MIC to compound MIC for Pseudomonas aeruginosa RCMB 010043; assay type: functional
[18] = test system: Mycobacterium tuberculosis; assay: Potency index, ratio of isoniazid MIC to compound MIC for antitubercular activity against Mycobacterium tuberculosis RCMB 010126 clinical isolate; assay type: functional
Aspergillus fumigatus [19] = assay: Potency index, ratio of amphotericin B MIC to compound MIC for Aspergillus fumigatus RCMB 02568; assay type: functional
Enterococcus faecium = assay: Antibacterial activity against vancomycin-resistant Enterococcus faecium ATCC 700221 after 24 hrs by serial dilution method; assay type: functional; details: ATCC 700221, 24 h
Aspergillus fumigatus [20] = assay: Potency index, ratio of amphotericin B MIC to compound MIC for antifungal activity against Aspergillus fumigatus RCMB 02568; assay type: functional
WI-38 = assay: Cytotoxicity against human WI38 cells by MTT assay; assay type: cell-based
Staphylococcus aureus [21] = assay: Antibacterial activity against methicillin-resistant Staphylococcus aureus ATCC 33592 after 24 hrs by serial dilution method; assay type: functional; details: ATCC 33592, 24 h
[22] = Selectivity index, ratio of IC50 for human WI38 cells to MIC for Mycobacterium tuberculosis RCMB 010126 clinical isolate; assay type: toxicity; details: read-out: Selectivity Index

Compound	diameter of the inhibition zone (DIZ) (Candida albicans [1])	diameter of the inhibition zone (DIZ) (Escherichia coli [2])	MIC (Escherichia coli [3])	Stability [4]	MIC (Mycolicibacterium aurum)	diameter of the inhibition zone (DIZ) (Staphylococcus aureus [5])	Ratio (Staphylococcus aureus [6])	GI50 [7]	MIC (Candida albicans [8])	MIC (Staphylococcus aureus [9])	Ratio (Escherichia coli [10])	selectivity ratio [11]	MIC (Pseudomonas aeruginosa [12])	diameter of the inhibition zone (DIZ) (Aspergillus fumigatus [13])	inhibition (INH) [14]	MIC [14]	diameter of the inhibition zone (DIZ) (Pseudomonas aeruginosa [15])	MIC (Aspergillus fumigatus [16])	Ratio (Pseudomonas aeruginosa [17])	Ratio (Aspergillus fumigatus [20])	other results
CCOC(=O)c1sc(/N=C2\NC(=O)/C(=C3/C(=O)Nc4ccc(Cl)cc43)S2)nc1C	24.4 mm	23.2 mm	0.98 µg/mL (≈ 2.18 µM)	Stable	> 200 µg/mL	23.1 mm	2	> 125 µg/mL	0.49 µg/mL (≈ 1.09 µM)	0.98 µg/mL (≈ 2.18 µM)	2	< 0.625	0.98 µg/mL (≈ 2.18 µM)	22.7 mm	56.34%	0.39 µg/mL (≈ 0.869 µM)	22.6 mm	1.95 µg/mL (≈ 4.34 µM)	4	–	Ratio [18]: 2; Ratio (Aspergillus fumigatus [19]): 2
O=C(O)c1cn(C2CC2)c2cc(N3CCNCC3)c(F)cc2c1=O [CIPROFLOXACIN]	–	24.3 mm	1.95 µg/mL (≈ 5.89 µM)	–	–	22.2 mm	–	–	–	1.95 µg/mL (≈ 5.89 µM)	–	–	3.9 µg/mL (≈ 11.8 µM)	–	–	–	23.1 mm	–	–	–	MIC (Enterococcus faecium): 3.9 µg/mL (≈ 11.8 µM)
CCOC(=O)c1sc(/N=C2\NC(=O)/C(=C3/C(=O)Nc4ccccc43)S2)nc1C	22.7 mm	22.4 mm	1.95 µg/mL (≈ 4.7 µM)	Stable	100 µg/mL (≈ 241 µM)	22.5 mm	–	125 µg/mL (≈ 302 µM)	0.98 µg/mL (≈ 2.36 µM)	0.98 µg/mL (≈ 2.36 µM)	–	1.25	1.95 µg/mL (≈ 4.7 µM)	21.6 mm	72.14%	0.78 µg/mL (≈ 1.88 µM)	21.8 mm	0.98 µg/mL (≈ 2.36 µM)	2	2	–
CC(=O)c1sc(/N=C2\NC(=O)/C(=C3/C(=O)N(C)c4ccccc43)S2)nc1C	25.1 mm	25.1 mm	0.49 µg/mL (≈ 1.23 µM)	Stable	50 µg/mL (≈ 125 µM)	23.4 mm	2	> 250 µg/mL	0.49 µg/mL (≈ 1.23 µM)	0.98 µg/mL (≈ 2.46 µM)	4	> 5	0.98 µg/mL (≈ 2.46 µM)	23.2 mm	76.35%	0.39 µg/mL (≈ 0.979 µM)	23.2 mm	0.98 µg/mL (≈ 2.46 µM)	4	2	IC50 (WI-38): 5.3 µg/mL (≈ 13.3 µM); MIC (Staphylococcus aureus [21]): 15.6 µg/mL (≈ 39.2 µM); selectivity ratio [22]: 13; Ratio [18]: 2; Ratio (Aspergillus fumigatus [19]): 2; MIC (Enterococcus faecium): 62.5 µg/mL (≈ 157 µM)
CCOC(=O)c1sc(/N=C2\NC(=O)/C(=C3/C(=O)N(Cc4ccccc4)c4ccccc43)S2)nc1C	25.2 mm	24.8 mm	0.98 µg/mL (≈ 1.94 µM)	Stable	200 µg/mL (≈ 396 µM)	24.2 mm	–	500 µg/mL (≈ 991 µM)	0.49 µg/mL (≈ 0.971 µM)	1.95 µg/mL (≈ 3.86 µM)	2	2.5	1.95 µg/mL (≈ 3.86 µM)	23.2 mm	87.38%	0.39 µg/mL (≈ 0.773 µM)	23.1 mm	0.98 µg/mL (≈ 1.94 µM)	2	2	–
